Assay results taken from patent publication US20230374038A1, “MODULATORS OF CYSTIC FIBROSIS TRANSMEMBRANE CONDUCTANCE REGULATOR” (VERTEX PHARMACEUTICALS INCORPORATED, priority 2020, published 2023).

Molecular target: T1, CFTR (Homo sapiens, UniProt P13569, DEL508-508)
T1 construct: endogenous in cells; host or cells: primary human bronchial epithelial cells, F508del/MF genotype
Test: HBE Assay: Ussing chamber assay of CFTR-mediated short-circuit currents in F508del/MF-HBE cells with 1 μM Ivacaftor
Assay type: cell-based
Details: 20% human serum; for EC50 / HBE Max Activity / HBE Activity at 10 μM (%) / Emax: 18-24 hours; for HBE Activity at 10 μM: single fixed concentration of 10 μM; for HBE Activity at 10 μM (%): single fixed concentration of 10 μM with 1 μM Ivacaftor; for Emax: compared to known Vertex corrector with 18 μM Tezacaftor and 1 μM Ivacaftor, read-out: HBE Max activity (%)
Experimental: Ussing chamber experiments were performed using human bronchial epithelial (HBE) cells derived from CF subjects heterozygous for F508del and a minimal function CFTR mutation (F508del/MF-HBE) and cultured as previously described (Neuberger T, Burton B, Clark H, Van Goor F Methods Mol Biol 2011:741:39-54). After four days the apical media was removed, and the cells were grown at an air liquid interface for >14 days prior to use.
(§1) To isolate the CFTR-mediated short-circuit (ISC) current, F508del/MF-HBE grown on Costar® Snapwell™ cell culture inserts were mounted in an Ussing chamber and the transepithelial ISC was measured under voltage-clamp recording conditions (Vhold=0 mV) at 37° C. The basolateral solution contained (in mM) 145 NaCl, 0.83 K2HIPO4, 3.3 KH2PO4, 1.2 MgCl2, 1.2 CaCl2), 10 Glucose, 10 HEPES (pH adjusted to 7.4 with NaOH) and the apical solution contained (in mM) 145 NaGluconate, 1.2 MgCl2, 1.2 CaCl2), 10 glucose, 10 HEPES (pH adjusted to 7.4 with NaOH) and 30 μM amiloride to block the epithelial sodium channel. Forskolin (20 μM) was added to the apical surface to activate CFTR, followed by apical addition of a CFTR inhibitor cocktail consisting of BPO, GlyH-101, and CFTR inhibitor 172 (each at 20 μM final assay concentration) to specifically isolate CFTR currents. The CFTR-mediated ISC (μA/cm^2) for each condition was determined from the peak forskolin response to the steady-state current following inhibition.
The activity of the CFTR corrector compounds on the CFTR-mediated ISC was determined in Ussing chamber studies as described above. The F508del/MF-HBE cell cultures were either incubated with the corrector compounds at a range of concentrations in combination with 1 μM Ivacaftor or were incubated with the corrector compounds at a single fixed concentration of 10 μM in combination with 1 μM Ivacaftor for 18-24 hours at 37° C. and in the presence of 20% human serum. The concentration of corrector compounds with 1 μM Ivacaftor during the 18-24 hours incubations was kept constant throughout the Ussing chamber measurement of the CFTR-mediated ISC to ensure compounds were present throughout the entire experiment.
as §1, with “K2HPO4,” for “K2HIPO4,”

[1] = range of concentrations with 1 μM Ivacaftor

T1 sequence (P13569 with tags, fused parts or gaps DEL508-508): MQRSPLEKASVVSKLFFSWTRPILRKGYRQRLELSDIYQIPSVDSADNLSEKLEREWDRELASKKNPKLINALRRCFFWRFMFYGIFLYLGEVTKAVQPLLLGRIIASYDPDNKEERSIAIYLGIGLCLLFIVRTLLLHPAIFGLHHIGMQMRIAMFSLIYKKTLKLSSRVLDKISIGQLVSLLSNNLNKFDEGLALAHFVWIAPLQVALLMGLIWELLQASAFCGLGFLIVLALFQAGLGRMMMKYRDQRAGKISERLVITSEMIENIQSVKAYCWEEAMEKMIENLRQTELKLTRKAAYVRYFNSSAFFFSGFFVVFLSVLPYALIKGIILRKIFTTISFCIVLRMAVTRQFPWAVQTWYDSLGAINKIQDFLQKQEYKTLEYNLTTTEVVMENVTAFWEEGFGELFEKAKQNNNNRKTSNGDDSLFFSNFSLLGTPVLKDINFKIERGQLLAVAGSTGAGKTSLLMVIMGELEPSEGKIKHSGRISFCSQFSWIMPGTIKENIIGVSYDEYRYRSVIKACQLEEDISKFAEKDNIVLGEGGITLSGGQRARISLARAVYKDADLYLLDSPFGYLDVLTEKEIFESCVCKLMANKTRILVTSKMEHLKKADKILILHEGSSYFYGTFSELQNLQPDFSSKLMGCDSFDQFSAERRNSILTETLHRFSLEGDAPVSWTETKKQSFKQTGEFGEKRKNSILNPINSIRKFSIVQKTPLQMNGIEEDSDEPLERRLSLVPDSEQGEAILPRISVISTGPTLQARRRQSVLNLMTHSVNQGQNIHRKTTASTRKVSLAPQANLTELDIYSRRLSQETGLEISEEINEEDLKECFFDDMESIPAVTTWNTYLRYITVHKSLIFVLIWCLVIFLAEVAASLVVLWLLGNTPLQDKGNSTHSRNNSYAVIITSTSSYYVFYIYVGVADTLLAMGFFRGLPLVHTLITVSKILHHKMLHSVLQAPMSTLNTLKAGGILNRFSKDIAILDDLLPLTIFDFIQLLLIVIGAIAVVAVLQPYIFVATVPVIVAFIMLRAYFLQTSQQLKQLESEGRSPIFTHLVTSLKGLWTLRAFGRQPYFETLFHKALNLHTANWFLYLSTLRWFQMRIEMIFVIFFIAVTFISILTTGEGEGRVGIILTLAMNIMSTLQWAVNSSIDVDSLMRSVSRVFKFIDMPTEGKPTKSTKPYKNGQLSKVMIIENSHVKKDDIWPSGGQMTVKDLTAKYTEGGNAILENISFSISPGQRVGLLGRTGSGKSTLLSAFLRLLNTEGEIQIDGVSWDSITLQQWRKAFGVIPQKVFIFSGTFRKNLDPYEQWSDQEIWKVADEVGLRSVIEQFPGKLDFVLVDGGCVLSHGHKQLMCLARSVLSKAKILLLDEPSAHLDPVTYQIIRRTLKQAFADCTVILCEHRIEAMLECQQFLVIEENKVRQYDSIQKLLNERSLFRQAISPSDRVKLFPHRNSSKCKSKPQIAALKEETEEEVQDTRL

Row | Compound | EC50 (with 1 μM Ivacaftor) | HBE Max Activity (with 1 μM Ivacaftor) | HBE Activity at 10 μM (with 1 μM Ivacaftor) | other results
1 | COCCN(C)c1cnc(CN2C(=O)c3cccc(c3)S(=O)(=O)Nc3nc(c(C)c(-c4c(C)cccc4CC4CCCCC4)n3)OC[C@H]2CC(C)(C)C)nc1 [Compound 283] | < 1000 nM | +++ (+++ is >600%) |  | 
2 | Cc1cccc(CC(C)C)c1-c1nc2nc(c1C)OC[C@@H](C)N(Cc1ncc(N3CCC(C)(C)C3)cn1)C(=O)c1cccc(c1)S(=O)(=O)N2 (atropisomer, axis not shown) [Compound 242] | < 1000 nM | +++ (+++ is >600%) |  | 
3 | Cc1cccc(C)c1-c1nc2nc(c1C)OC[C@@H](C(C)C)N(Cc1ncc(OC(C)C)cn1)C(=O)c1cccc(c1)S(=O)(=O)N2 [Compound 197] |  |  | +++ (+++ is >600%) | 
4 | Cc1cccc(CC2CCOCC2)c1-c1nc2nc(c1C)OC[C@@H](CC(C)(C)C)N(Cc1ncc(N3CCC(C)(C)C3)cn1)C(=O)c1cccc(c1)S(=O)(=O)N2 (atropisomer, axis not shown) [Compound 271] |  |  | +++ (+++ is >600%) | 
5 | Cc1cccc(CC(C)C)c1-c1nc2nc(c1C(F)(F)F)OC[C@@H](CC(C)(C)C)N(Cc1ccc(N3CCOCC3)cn1)C(=O)c1cccc(c1)S(=O)(=O)N2 (atropisomer, axis not shown) [Compound 247] |  |  | ++ (++ is 30-60%) | 
6 | Cc1cccc(CC2CCCCC2)c1-c1nc2nc(c1C(F)(F)F)OC[C@@H](CC(C)(C)C)N(Cc1ncc(N3CCOCC3)cn1)C(=O)c1cccc(c1)S(=O)(=O)N2 (atropisomer, axis not shown) [Compound 245] |  |  | ++ (++ is 30-60%) | 
7 | Cc1cccc(CC2CCCCC2)c1-c1nc2nc(c1C)OC[C@@H](CC(C)(C)C)N(Cc1nccc(C(C)C)n1)C(=O)c1cccc(c1)S(=O)(=O)N2 [Compound 250] | < 1000 nM | +++ (+++ is >600%) |  | 
8 | Cc1cccc(CC2CCCC2)c1-c1nc2nc(c1C)OC[C@@H](CC(C)(C)C)N(Cc1ccc(N3CCOCC3)cn1)C(=O)c1cccc(c1)S(=O)(=O)N2 (atropisomer, axis not shown) [Compound 289] | < 1000 nM | +++ (+++ is >600%) |  | 
9 | Cc1cccc(CC2CCCC2)c1-c1nc2nc(c1C)OC[C@@H](CC(C)(C)C)N(Cc1ncc(N3CCOCC3)cn1)C(=O)c1cccc(c1)S(=O)(=O)N2 (atropisomer, axis not shown) [Compound 281] | < 1000 nM | +++ (+++ is >600%) |  | 
10 | Cc1cccc(CC2COC2)c1-c1nc2nc(c1C)OC[C@@H](CC(C)(C)C)N(Cc1ncc(OC(C)C)cn1)C(=O)c1cccc(c1)S(=O)(=O)N2 [Compound 347] |  |  |  | HBE Activity at 10 μM (%): +++ (+++ is >60%)
11 | Cc1cccc(CC2CCCCC2)c1-c1nc2nc(c1C(F)(F)F)OC[C@@H](CC(C)(C)C)N(Cc1ncc(N3CCOCC3)cn1)C(=O)c1cccc(c1)S(=O)(=O)N2 (atropisomer, axis not shown) [Compound 244] | < 1000 nM | +++ (+++ is >600%) |  | 
12 | Cc1cccc(CC2CCCCC2)c1-c1nc2nc(c1C)OC[C@@H](CC(C)(C)C)N(Cc1ccc(N3CCOCC3)cn1)C(=O)c1cccc(c1)S(=O)(=O)N2 (single isomer, unassigned) [Compound 206] | < 1000 nM | +++ (+++ is >600%) |  | 
13 | Cc1cccc(C)c1-c1nc2nc(c1F)OC[C@@H](CC(C)C)N(Cc1ncc(OC3CCC3)cn1)C(=O)c1cccc(c1)S(=O)(=O)N2 [Compound 338] |  |  |  | EC50 [1]: < 1000 nM; Emax (with 1 μM Ivacaftor): > 60%
14 | Cc1cccc(C)c1-c1nc2nc(c1F)OC[C@@H](CC1CCC1)N(Cc1ncc(OC(C)C)cn1)C(=O)c1cccc(c1)S(=O)(=O)N2 [Compound 354] |  |  |  | HBE Activity at 10 μM (%): +++ (+++ is >60%)
15 | Cc1cccc(C)c1-c1nc2nc(c1C)OC[C@@H](CC1CC1)N(Cc1ncc(OC3CCC3)cn1)C(=O)c1cccc(c1)S(=O)(=O)N2 [Compound 346] |  |  |  | EC50 [1]: < 1000 nM; Emax (with 1 μM Ivacaftor): > 60%
16 | Cc1cccc(CC2CCCCC2)c1-c1nc2nc(c1C)OC[C@@H](CC(C)(C)C)N(Cc1cccc(N(C(C)C)C(C)C)n1)C(=O)c1cccc(c1)S(=O)(=O)N2 (atropisomer, axis not shown) [Compound 256] | < 1000 nM | +++ (+++ is >600%) |  | 
17 | Cc1cccc(CC(C)C)c1-c1nc2nc(c1C)OC[C@@H](CC(C)C)N(Cc1ncc(N3CCC(C)(C)C3)cn1)C(=O)c1cccc(c1)S(=O)(=O)N2 (atropisomer, axis not shown) [Compound 241] | < 1000 nM | +++ (+++ is >600%) |  | 
18 | COCCN(C)c1cnc(CN2C(=O)c3cccc(c3)S(=O)(=O)Nc3nc(c(C)c(-c4c(C)cccc4CC(C)C)n3)OC[C@H]2CC(C)(C)C)nc1 (atropisomer, axis not shown) [Compound 293] |  |  | +++ (+++ is >600%) | 
19 | Cc1cccc(CC2CCCCC2)c1-c1nc2nc(c1C)OC[C@@H](CC(C)(C)C)N(Cc1ncccc1N1CCOCC1)C(=O)c1cccc(c1)S(=O)(=O)N2 (atropisomer, axis not shown) [Compound 310] | < 1000 nM | +++ (+++ is >600%) |  | 
20 | Cc1cccc(CC(C)C)c1-c1nc2nc(c1C)OC[C@@H](CC(C)C)N(Cc1nccc(N(C)C(C)C)n1)C(=O)c1cccc(c1)S(=O)(=O)N2 (atropisomer, axis not shown) [Compound 231] |  |  | +++ (+++ is >600%) | 
21 | Cc1cccc(CC2CCCCC2)c1-c1nc2nc(c1C)OC[C@@H](CC(C)(C)C)N(Cc1nccc(N(C)C(C)C)n1)C(=O)c1cccc(c1)S(=O)(=O)N2 (atropisomer, axis not shown) [Compound 262] | < 1000 nM | +++ (+++ is >600%) |  | 
22 | Cc1cccc(C(C)C)c1-c1nc2nc(c1C)OC[C@@H](CC(C)(C)C)N(Cc1cnc(C3CCOCC3)cn1)C(=O)c1cccc(c1)S(=O)(=O)N2 (atropisomer, axis not shown) [Compound 319] |  |  | +++ (+++ is >600%) | 
23 | Cc1cccc(COC(C)C)c1-c1nc2nc(c1C)OC[C@@H](CC(C)(C)C)N(Cc1nccc(N(C)C(C)C)n1)C(=O)c1cccc(c1)S(=O)(=O)N2 (atropisomer, axis not shown) [Compound 230] |  |  | +++ (+++ is >600%) | 
24 | Cc1cccc(CC(C)C)c1-c1nc2nc(c1C(F)(F)F)OC[C@@H](CC(C)(C)C)N(Cc1ncc(N3CCOCC3)cn1)C(=O)c1cccc(c1)S(=O)(=O)N2 (single isomer, unassigned) [Compound 213] |  |  | +++ (+++ is >600%) | 
25 | Cc1cccc(CC2CCCCC2)c1-c1nc2nc(c1C)OC[C@@H](CC(C)(C)C)N(Cc1ncc(N(C)C)cn1)C(=O)c1cccc(c1)S(=O)(=O)N2 (atropisomer, axis not shown) [Compound 304] | < 1000 nM | +++ (+++ is >600%) |  | 
26 | Cc1cccc(CC2CCCCC2)c1-c1nc2nc(c1C)OC[C@@H](CC(C)(C)C)N(Cc1ccc(N3CCOCC3)cn1)C(=O)c1cccc(c1)S(=O)(=O)N2 (single isomer, unassigned) [Compound 207] | < 1000 nM | +++ (+++ is >600%) |  | 
27 | Cc1cccc(CC2CCCC2)c1-c1nc2nc(c1C)OC[C@@H](CC(C)(C)C)N(Cc1cccc(N(C)C(C)C)n1)C(=O)c1cccc(c1)S(=O)(=O)N2 (atropisomer, axis not shown) [Compound 273] | < 1000 nM | +++ (+++ is >600%) |  | 
28 | Cc1cccc(CC(C)C)c1-c1nc2nc(c1C)OC[C@@H](CC(C)(C)C)N(Cc1ncc(CC(C)C)cn1)C(=O)c1cccc(c1)S(=O)(=O)N2 (atropisomer, axis not shown) [Compound 264] | < 1000 nM | +++ (+++ is >600%) |  | 
